The results in this text go back to article PMC8151276, “An Integrated Approach toward NanoBRET Tracers for Analysis of GPCR Ligand Engagement” (Molecules, 2021).

Test [1] has as its target T1, CCR2 (Homo sapiens, UniProt P41597).
T1 construct: purchased Promega (in-house HiBiT-GPCR construct library, NanoBRET)
The test can be described thus: NanoBRET screen HiBiT-CCR2 in HEK293. The class given is binding. As to the method:
(§1) Each tracer candidate was screened across the entire library of HiBiT-GPCR constructs using NanoBRET as the detection modality. As depicted in Figure 4A, the specificity of interactions was evaluated through decrease in BRET due to competitive displacement of a bound tracer by excess parental compound. Each tracer was analyzed for binding to each HiBiT-GPCR fusion in the absence and in the presence of competing parental compound. Briefly, HEK293 cells were transfected with HiBiT-GPCR constructs diluted into promoterless DNA to reduce expression and maximize translocation to the cell surface. Each tracer candidate was then screened at concentrations of 1 μM and 0.1 μM across cells expressing these fusions. Cells were treated for 1.5 h with tracer either alone or in the presence of 20 μM competing parental compound (i.e., control). BRET was measured upon addition of purified LgBiT and subsequent complementation with HiBiT genetically fused to a GPCR. The specificity of interactions was assessed through a decrease in BRET signal due to competitive displacement of the bound tracer. To further gauge the robustness of these interactions, the fold response over the control (i.e., BRETtracer/BRETcontrol) was calculated. We chose a 1.5-fold response, which translates to ≥7-fold signal over noise as the minimal threshold required to score an interaction as positive. […]. Below we highlight the screening results obtained for our exemplary fluorescent tracers based on Clozapine, Amitriptyline and AZD1283.
(§2) HiBiT-GPCR DNA constructs were diluted in 10 mM Tris pH 8 to a final concentration of 0.01 μg/μL, arrayed in 96-well plates and stored at −20 °C. For transfection, HEK293 cells were suspended in Opti-MEM (without phenol red) supplemented with 2% fetal bovine serum (Seradigm) and 100 units/mL penicillin–streptomycin (Gibco) at a final concentration of 220,000 cells/mL and dispensed into white 96-well plates at 90 μL/well. Subsequent transfections and screens were carried using an Agilent Bravo Automated Liquid Handling Platform. First, the 96-well HiBiT DNA arrays were diluted 25-fold in Opti-MEM (without serum or phenol red) to a final concentration of 0.0004 μg/μL and 20 μL of the diluted DNAs were transferred into new 96-well plates. Next, promoterless carrier DNA (1 μg/μL) was diluted 25-fold (0.04 μg/μL) and then dispensed into the diluted arrays at 20 μL/well. Following brief mixing, Viafect transfection reagent (Promega) diluted 16-fold into Opti-MEM was dispensed into the plates at 40 μL/well. After mixing by pipetting, plates were incubated for 10 min on the pipetting station deck. The DNA-transfection reagent complexes were then added to plates containing cells. To facilitate the screen, 10 μL of DNA-transfection reagent complexes were added in duplicates to the top 4 and bottom 4 rows, resulting in two identical 48-well arrays per plate. Plates with transfected cells were incubated for 18–20 h at 37 °C/5% CO2. A screen of each tracer across the entire library using two different concentrations requires duplicate plates of transfected cells. Depending on the number of tracers being screened, transfections can be scaled up using the same ratios. The next day, for each tracer, four 20× screening solutions in tracer dilution buffer (Promega) were prepared: two duplicates at final concentration of 20 μM and two duplicates at a final concentration of 2 μM. A competing unmodified compound was added to one of each duplicate at a final concentration of 400 μM. The four resulting solutions were diluted 4-fold in Opti-MEM without serum or phenol red to generate 5× solutions (5 µM and 0.5 µM tracer +/− 100 μM competing compound). To screen the library, a BioTek MultiFlo FX liquid dispenser was used to dispense 22.5 µL of tracer solution to the top 4 rows and 22.5 µL tracer + competing compound solution to the 4 bottom rows. Plates were briefly mixed on an orbital shaker and incubated for 1.5 h at room temperature. […]
A general note: In BRET a luciferase serves as donor, and the signal depends on an acceptor being close.

Test [2] addresses T2, FSHR (Homo sapiens, UniProt P23945).
T2 construct: purchased Promega (in-house HiBiT-GPCR construct library, NanoBRET)
T2 sequence (P23945 18-695): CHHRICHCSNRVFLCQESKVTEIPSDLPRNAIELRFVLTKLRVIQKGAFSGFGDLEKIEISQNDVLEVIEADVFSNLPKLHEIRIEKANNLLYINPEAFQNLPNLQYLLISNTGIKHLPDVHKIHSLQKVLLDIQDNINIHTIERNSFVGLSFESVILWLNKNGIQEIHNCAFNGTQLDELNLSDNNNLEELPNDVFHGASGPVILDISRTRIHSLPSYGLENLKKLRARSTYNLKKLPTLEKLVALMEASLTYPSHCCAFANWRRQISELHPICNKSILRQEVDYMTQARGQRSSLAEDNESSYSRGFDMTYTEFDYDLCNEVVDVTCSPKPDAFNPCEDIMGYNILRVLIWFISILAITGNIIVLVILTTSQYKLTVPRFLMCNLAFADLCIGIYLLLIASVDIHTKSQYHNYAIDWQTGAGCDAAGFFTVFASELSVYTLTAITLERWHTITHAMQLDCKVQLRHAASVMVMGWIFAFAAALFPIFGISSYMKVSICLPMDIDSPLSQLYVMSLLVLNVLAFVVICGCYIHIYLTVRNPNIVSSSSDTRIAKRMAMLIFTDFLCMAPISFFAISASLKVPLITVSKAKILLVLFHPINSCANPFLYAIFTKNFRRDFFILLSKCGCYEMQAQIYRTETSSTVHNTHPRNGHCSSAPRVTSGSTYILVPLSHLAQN
As to the kind of experiment: NanoBRET screen HiBiT-FSHR in HEK293. Format: binding. As to the method: as §1, §2

Structures are written as SMILES.

T1 sequence (P41597 whole entry): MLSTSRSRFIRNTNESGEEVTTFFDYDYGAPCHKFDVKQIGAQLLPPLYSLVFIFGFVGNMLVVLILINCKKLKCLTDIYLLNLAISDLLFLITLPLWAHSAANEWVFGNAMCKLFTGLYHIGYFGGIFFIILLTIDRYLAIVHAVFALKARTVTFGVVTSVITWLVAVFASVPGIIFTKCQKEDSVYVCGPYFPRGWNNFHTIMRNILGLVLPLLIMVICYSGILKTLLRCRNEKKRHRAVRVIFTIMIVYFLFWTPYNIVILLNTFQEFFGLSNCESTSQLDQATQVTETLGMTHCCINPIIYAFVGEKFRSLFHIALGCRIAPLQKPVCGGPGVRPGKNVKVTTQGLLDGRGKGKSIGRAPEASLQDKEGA

Consider `COc1ccc2c(n1)c(CCNC(C)=O)cn2CCNC(=O)CCc1ccc2n1[B-](F)(F)[N+]1=C(c3ccc[nH]3)C=CC1=C2` [Azamelatonin-1-NB590], for which the “NanoBRET Fold Response” value was 1.06 in test [1] (0.1μM tracer), 0.97 in test [1] (1μM tracer), 1.08 in test [2] (0.1μM tracer) and 1.08 in test [2] (1μM tracer).

On to `CC(C)N(CC[C@H](c1ccccc1)c1cc(CCNC(=O)c2ccc(CNC(=O)CCc3ccc4n3[B-](F)(F)[N+]3=C(c5ccc[nH]5)C=CC3=C4)cc2)ccc1O)C(C)C` [Tolterodine-BZ-NB590], for which the “NanoBRET Fold Response” value in test [1] (CCR2, tracer 0.1μM) stood at 0.99; in test [1] (CCR2, tracer 1μM), 0.89; in test [2] (FSHR, tracer 0.1μM), 1.08; in test [2] (FSHR, tracer 1μM), 1.09.

As to `O=C(CCc1ccc2n1[B-](F)(F)[N+]1=C(c3ccc[nH]3)C=CC1=C2)NCCOCCOCCNC(=O)OCCOCCN1CCN(C2=Nc3ccccc3Sc3ccccc32)CC1` [Quetiapine-a-2-NB590], the “NanoBRET Fold Response” value in test [1] (CCR2, tracer 0.1μM) was 1.00; in test [1] (CCR2, tracer 1μM), 0.88; in test [2] (FSHR, tracer 0.1μM) it was 0.89; in test [2] (FSHR, tracer 1μM), 1.07.

Consider `Cc1cc2c(s1)Nc1ccccc1N=C2N1CCN(CCCNC(=O)CCOCCOCCOCCOCCNC(=O)CCc2ccc3n2[B-](F)(F)[N+]2=C(c4ccc[nH]4)C=CC2=C3)CC1` [Olanzapine-a-2-NB590], for which the “NanoBRET Fold Response” value is listed as 1.00 in test [1] (CCR2, tracer 0.1μM); 0.59 in test [1] (CCR2, tracer 1μM); 1.10 in test [2] (FSHR, tracer 0.1μM); 0.99 in test [2] (FSHR, tracer 1μM).

Regarding `O=C(CCc1ccc2n1[B-](F)(F)[N+]1=C(c3ccc[nH]3)C=CC1=C2)NCc1ccc(C(=O)NCCOCCOCCNCC(O)COc2cccc3ccccc23)cc1` (stereo not shown) [Propranolol-3-NB590], the “NanoBRET Fold Response” value in test [1] (CCR2, 0.1μM) was 0.99; in test [1] (CCR2, 1μM), 1.19; in test [2] (FSHR, 0.1μM), 0.98; in test [2] (FSHR, 1μM), 1.04.

Take `CN1CCN(C2=Nc3cc(Cl)ccc3N(CC(=O)NCCOCCOCCOCCOCCNC(=O)CCc3ccc4n3[B-](F)(F)[N+]3=C(c5ccc[nH]5)C=CC3=C4)c3ccccc32)CC1` [Clozapine-c-2-NB590]: the “NanoBRET Fold Response” value is given as 0.94 in test [1] (CCR2, 0.1μM tracer); 0.75 in test [1] (CCR2, 1μM tracer); 1.02 in test [2] (FSHR, 0.1μM tracer); 1.05 in test [2] (FSHR, 1μM tracer).

In the case of `O=C(CCc1ccc2n1[B-](F)(F)[N+]1=C(c3ccc[nH]3)C=CC1=C2)NCc1ccc(C(=O)NCCOCCC(=O)N[C@@H]2CC[C@@]3(O)[C@H]4Cc5ccc(O)c6c5[C@@]3(CCN4CC3CC3)[C@H]2O6)cc1` [Naltrexone-3-NB590], the “NanoBRET Fold Response” value in test [1] (CCR2, tracer 0.1μM) is 1.12; in test [1] (CCR2, tracer 1μM), 0.70; in test [2] (FSHR, tracer 0.1μM) it was 0.98; in test [2] (FSHR, tracer 1μM) it was 1.07.

For the compound `CC(C)N(CC[C@H](c1ccccc1)c1cc(CCNC(=O)CCOCCOCCOCCOCCNC(=O)CCc2ccc3n2[B-](F)(F)[N+]2=C(c4ccc[nH]4)C=CC2=C3)ccc1O)C(C)C` [Tolterodine-2-NB590], the “NanoBRET Fold Response” value in test [1] (CCR2, tracer 0.1μM) is given as 1.20; in test [1] (CCR2, tracer 1μM) it was 0.98; in test [2] (FSHR, tracer 0.1μM), 0.78; in test [2] (FSHR, tracer 1μM) it was 1.08.

In the case of `Cc1nc2n(c(=O)c1CCN1CCC(c3noc4cc(F)ccc34)CC1)CCCC2OC(=O)NCCOCCOCCOCCOCCNC(=O)CCc1ccc2n1[B-](F)(F)[N+]1=C(c3ccc[nH]3)C=CC1=C2` (stereo not shown) [Risperidone-2-NB590], the “NanoBRET Fold Response” value in test [1] (CCR2, tracer 0.1μM) worked out at 1.01; in test [1] (CCR2, tracer 1μM) it was 1.16; in test [2] (FSHR, tracer 0.1μM), 0.95; in test [2] (FSHR, tracer 1μM), 1.23.

`O=C(CCOCCOCCOCCOCCNC(=O)CCc1ccc2n1[B-](F)(F)[N+]1=C(c3ccc[nH]3)C=CC1=C2)NCCCN1CCN(C2=Nc3cc(Cl)ccc3Nc3ccccc32)CC1` [Clozapine-a-2-NB590]: the “NanoBRET Fold Response” value in test [1] (CCR2, 0.1μM tracer) stood at 1.06; in test [1] (CCR2, 1μM tracer), 0.73; in test [2] (FSHR, 0.1μM tracer), 0.99; in test [2] (FSHR, 1μM tracer) it was 1.32.

As for `COc1ccc2[nH]c(-c3ccc(CNC(=O)CCOCCOCCOCCOCCNC(=O)CCc4ccc5n4[B-](F)(F)[N+]4=C(c6ccc[nH]6)C=CC4=C5)cc3)c(CCNC(C)=O)c2n1` [AzomelatoninICO9-2-NB590], the “NanoBRET Fold Response” value came out at 1.23 in test [1] (0.1μM tracer), 1.22 in test [1] (1μM tracer), 1.32 in test [2] (0.1μM tracer) and 1.02 in test [2] (1μM tracer).

For the compound `CN1CCN(C2=Nc3cc(Cl)ccc3Nc3ccc(CNC(=O)CCOCCOCCOCCOCCNC(=O)CCc4ccc5n4[B-](F)(F)[N+]4=C(c6ccc[nH]6)C=CC4=C5)cc32)CC1` [Clozapine-b-2-NB590], the “NanoBRET Fold Response” value was 1.01 in test [1] (CCR2, 0.1μM tracer); 0.93 in test [1] (CCR2, 1μM tracer); 1.01 in test [2] (FSHR, 0.1μM tracer); 1.05 in test [2] (FSHR, 1μM tracer).

For the compound `COc1ccccc1N1CCN(CCCCN2C(=O)c3ccc(CNC(=O)CCOCCNC(=O)c4ccc(CNC(=O)CCc5ccc6n5[B-](F)(F)[N+]5=C(c7ccc[nH]7)C=CC5=C6)cc4)cc3C2=O)CC1` [NAN-190-3-NB590], the “NanoBRET Fold Response” value is reported as 0.82 in test [1] (CCR2, tracer 0.1μM); 0.94 in test [1] (CCR2, tracer 1μM); 0.88 in test [2] (FSHR, tracer 0.1μM); 1.12 in test [2] (FSHR, tracer 1μM).

Take `N#CN=C(NCCCOc1cccc(CN2CCCCC2)c1)NCCNC(=O)CCOCCOCCOCCOCCNC(=O)CCc1ccc2n1[B-](F)(F)[N+]1=C(c3ccc[nH]3)C=CC1=C2` [Aminopotentidine-2-NB590]: the “NanoBRET Fold Response” value in test [1] (CCR2, tracer 0.1μM) is listed as 0.93; in test [1] (CCR2, tracer 1μM), 0.98; in test [2] (FSHR, tracer 0.1μM) it was 0.99; in test [2] (FSHR, tracer 1μM), 1.06.

For the compound `CN(C)CCC=C1c2ccccc2CCc2ccc(C(=O)NCCNC(=O)CCOCCOCCOCCOCCNC(=O)CCc3ccc4n3[B-](F)(F)[N+]3=C(c5ccc[nH]5)C=CC3=C4)cc21` [Amitriptyline-b-2-NB590], the “NanoBRET Fold Response” value was determined as 0.99 in test [1] (tracer at 0.1μM); 0.89 in test [1] (tracer at 1μM); 1.13 in test [2] (tracer at 0.1μM, listed as amitriptyline-b-2-NB590); 0.96 in test [2] (tracer at 1μM, listed as amitriptyline-b-2-NB590).

`CN(CCC=C1c2ccccc2CCc2ccccc21)C(=O)CCOCCOCCOCCOCCNC(=O)CCc1ccc2n1[B-](F)(F)[N+]1=C(c3ccc[nH]3)C=CC1=C2` [Amitriptyline-e-2-NB590]: the “NanoBRET Fold Response” value in test [1] (tracer at 1μM) came to 0.90.
